The values below are quoted from earlier work in patent publication US20260355187A1, “LURBINECTEDIN AND DOXORUBICIN COMBINATION” (PHARMA MAR, S.A., priority 2022, published 2026).

Series [1] has as its system tumour-associates macrophages. As to conditions: by inhibiting active transcription.
Series [2] relates to NCI panel of 36 cell lines.
Another series deals with CYP3A4. As to conditions: role: substrate; human microsomes, in vitro.
The next series relates to CYP2E1. As to conditions: role: substrate; human microsomes, in vitro; after CYP3A4.
The subject of series [3] is tumour-derived cell lines. As to conditions: in vitro.
The next series deals with other CYP isoenzymes. As to conditions: role: substrate; human microsomes, in vitro.
For series [4], the system named is CYP3A4, CYP2D6, and/or P-gp. Conditions: role: substrate; inhibitors e.g. verapamil.
The test system of the next series is cytochrome P450 CYP3A4. Conditions: role: substrate.
For another series, the system named is CYP2D6. As to conditions: role: substrate.
Another series has as its system P-glycoprotein (P-gp). Conditions: role: substrate.

SMILES strings stand for the structures. Where a name gives a salt, the structure may show the parent alone.

Consider `COc1ccc2[nH]c3c(c2c1)CCN[C@]31CS[C@@H]2c3c(OC(C)=O)c(C)c4c(c3[C@H](COC1=O)N1[C@@H]2[C@H]2c3c(cc(C)c(OC)c3O)C[C@@H]([C@@H]1O)N2C)OCO4` [lurbinectedin], for which, in series [1], the “Cytokine production in tumour-associated macrophages” value is “downregulates IL-6, IL-8, CCL2, and VEGF”. Besides, the COMPARE analysis entry in [2] (against other 98 standard anticancer agents) is “negative”. In [2] (versus trabectedin), the “COMPARE correlation with trabectedin (S-rank)” value was greater than 0.8. Moreover, in the series with CYP3A4, the “Contribution of CYP3A4 to metabolism” value is “major CYP isoform involved in the metabolism”. In addition, in the series on CYP2E1, the “Contribution of CYP2E1 to metabolism” value is listed as “followed by CYP2E1”. Moreover, the “half maximal inhibitory concentration (IC50), range in words” value in series [3] (broad selection of tumour-derived cell lines) was “low to very low nanomolar range”. The IC50 in series [3] (median over tumour-derived cell lines) was roughly 0.1 nM. In addition, the “Estimated contribution of the other CYP isoenzymes to metabolism” value in the series with other CYP isoenzymes was “negligible”.

In the case of `COc1cccc2c1C(=O)c1c(O)c3c(c(O)c1C2=O)C[C@@](O)(C(=O)CO)C[C@@H]3O[C@H]1C[C@H](N)[C@H](O)[C@H](C)O1` [doxorubicin, 5,12-Naphthacenedione, 10-[(3-amino-2,3,6-trideoxy-α-L-lyxo-hexopyranosyl)oxy]-7,8,9,10tetrahydro-6,8,11-trihydroxy-8-(hydroxylacetyl)-1-methoxy-, hydrochloride (8S-cis)], in [4], the “Clinical interaction with inhibitors of CYP3A4, CYP2D6, and/or P-gp” value was “increased concentration and clinical effect of doxorubicin”. Also, in the series with cytochrome P450 CYP3A4, the “Substrate of CYP3A4” value is “major substrate”. In the series on CYP2D6, the “Substrate of CYP2D6” value is reported as “major substrate”. Also, in the series on P-glycoprotein (P-gp), the “Substrate of P-glycoprotein (P-gp)” value was “major substrate”.

Broadly, the IC50 is the concentration needed to halve the response being measured.
